This passage reports IC50 results from patent publication US20080234262A1 (Wyeth, priority 2007, published 2008).

pIC50: −log10 of the molar value.

Experiment [1] deals with PI3K (Homo sapiens, UniProt P42336). Briefly: Fluorescence polarization assay for PI3K.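 Also: PI3K kinase reaction on PIP2 with ATP, 30-60 min, product sensed by GST-GRP with red probe in fluorescence polarization (mP), controls without enzyme and at zero time.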 The class given is biochemical. The conditions noted are these: PI3Kα; read-out: PI3Kα IC50. On the technique in general: Polarisation of emitted light reports the rotation of a fluorescent probe.
PI3K, sequence (P42336 whole entry): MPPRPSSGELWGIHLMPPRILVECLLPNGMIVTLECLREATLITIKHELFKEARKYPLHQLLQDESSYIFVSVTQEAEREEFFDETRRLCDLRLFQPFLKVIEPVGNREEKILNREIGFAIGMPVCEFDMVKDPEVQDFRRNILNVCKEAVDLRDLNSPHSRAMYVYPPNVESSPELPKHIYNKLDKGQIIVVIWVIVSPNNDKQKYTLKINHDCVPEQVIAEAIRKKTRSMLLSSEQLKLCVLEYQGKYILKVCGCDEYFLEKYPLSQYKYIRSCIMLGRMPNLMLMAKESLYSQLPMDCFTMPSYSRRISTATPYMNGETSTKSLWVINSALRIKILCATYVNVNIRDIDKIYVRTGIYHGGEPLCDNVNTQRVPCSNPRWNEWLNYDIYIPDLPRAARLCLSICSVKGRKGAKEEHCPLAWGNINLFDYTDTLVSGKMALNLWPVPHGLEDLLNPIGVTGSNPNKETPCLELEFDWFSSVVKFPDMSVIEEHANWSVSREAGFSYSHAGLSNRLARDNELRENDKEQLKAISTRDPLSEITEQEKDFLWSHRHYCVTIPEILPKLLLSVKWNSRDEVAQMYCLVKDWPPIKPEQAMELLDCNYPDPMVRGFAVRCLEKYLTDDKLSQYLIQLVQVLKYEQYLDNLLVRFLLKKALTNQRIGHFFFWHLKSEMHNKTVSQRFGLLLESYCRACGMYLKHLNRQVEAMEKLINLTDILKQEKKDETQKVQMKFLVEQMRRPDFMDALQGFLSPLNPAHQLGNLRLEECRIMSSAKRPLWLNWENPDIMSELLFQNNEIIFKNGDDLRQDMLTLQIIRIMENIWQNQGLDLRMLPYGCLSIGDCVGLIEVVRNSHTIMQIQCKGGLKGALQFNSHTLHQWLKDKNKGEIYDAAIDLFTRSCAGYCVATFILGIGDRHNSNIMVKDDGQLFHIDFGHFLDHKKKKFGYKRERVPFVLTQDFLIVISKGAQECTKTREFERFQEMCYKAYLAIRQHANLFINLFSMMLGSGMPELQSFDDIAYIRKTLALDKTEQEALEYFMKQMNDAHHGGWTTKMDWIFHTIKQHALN
PI3K, sequence (P27986 whole entry partner): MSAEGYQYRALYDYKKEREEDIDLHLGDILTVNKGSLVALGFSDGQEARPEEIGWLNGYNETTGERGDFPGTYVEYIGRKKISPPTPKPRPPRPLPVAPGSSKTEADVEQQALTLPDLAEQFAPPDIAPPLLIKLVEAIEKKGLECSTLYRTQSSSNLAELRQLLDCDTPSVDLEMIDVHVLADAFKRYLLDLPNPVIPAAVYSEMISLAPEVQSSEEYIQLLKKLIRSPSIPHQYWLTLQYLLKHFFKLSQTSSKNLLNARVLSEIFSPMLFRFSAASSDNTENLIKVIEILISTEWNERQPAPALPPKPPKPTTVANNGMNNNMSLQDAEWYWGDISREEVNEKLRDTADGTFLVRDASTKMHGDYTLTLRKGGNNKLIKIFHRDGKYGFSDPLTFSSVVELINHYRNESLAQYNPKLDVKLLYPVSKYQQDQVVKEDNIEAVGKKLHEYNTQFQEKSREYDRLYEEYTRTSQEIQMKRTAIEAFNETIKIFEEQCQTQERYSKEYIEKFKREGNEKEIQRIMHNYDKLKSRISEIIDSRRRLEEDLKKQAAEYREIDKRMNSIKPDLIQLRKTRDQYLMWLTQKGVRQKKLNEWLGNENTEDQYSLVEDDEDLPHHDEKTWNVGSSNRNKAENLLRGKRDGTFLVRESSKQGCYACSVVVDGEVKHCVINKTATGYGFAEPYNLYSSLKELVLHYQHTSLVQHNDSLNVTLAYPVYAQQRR
For experiment [2], the system named is prostate line LNCap. Briefly: In vitro cell culture growth assay (MTS), LNCap.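 Also: viable cell density read by absorbance at 490 nm, growth expressed as percent of vehicle-treated cells on the same plate.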 The class given is cell-based, human. The conditions noted are these: LNCap cells, three days after drug treatment.
The subject of experiment [3] is breast line MDA468. Kind of experiment: In vitro cell culture growth assay (MTS), MDA468. The class given is cell-based, human. The conditions noted are these: MDA468 cells, three days after drug treatment. In short, it runs like this:
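Growth measured as percent of same-plate vehicle control by MTS metabolic dye conversion (A490). Breast MDA468 and prostate LNCap cells, plated a day ahead, were exposed to compounds for 3 days.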

For orientation: pIC50 means −log10 of the IC50, conventionally taken in molar units. Take `Nc1ccnc(-c2nc(N3CCOCC3)c3cnn(-c4ccccc4)c3n2)c1` [Compound 437, 2-(4-morpholin-4-yl-1-phenyl-1H-pyrazolo[3,4-d]pyrimidin-6-yl)pyridin-4-amine]: the pIC50 was 5.84 in experiment [1]; 4.22 in experiment [2] (Homo sapiens, LNCaP, 72 h); 4.22 in experiment [3] (Homo sapiens, 72 h).
For the compound `Oc1cccc(-c2nc(N3CCOCC3)c3cnn(CCN4CCOCC4)c3n2)c1` [Compound 165], the negative-log IC50 (pIC50) in experiment [1] is 6.75; in experiment [2] (Homo sapiens, LNCaP, 72 h), 5.52; in experiment [3] (Homo sapiens, 72 h) it was 4.92.
Taken in the same sequence, the figures for `c1cc2cc(-c3nc(N4CCOCC4)c4cnn(C5CCC(N6CCCC6)CC5)c4n3)ccc2[nH]1` (stereo not drawn) [Compound 151] were 5.90, 6.28 and 5.64.
Taken in the same sequence, the figures for `COC(=O)N1CCC(n2ncc3c(N4CCOCC4)nc(-c4ccc(NC(=O)Nc5ccc(CCNCCN(C)C)cc5)cc4)nc32)CC1` [Compound 919, methyl 4-{6-[4-({[4-(2-{[2-(dimethylamino)ethyl]amino}ethyl)phenyl]carbamoyl}amino)phenyl]-4-morpholin-4-yl-1H-pyrazolo[3,4-d]pyrimidin-1-yl}piperidine-1-carboxylate] were 8.10, 7.51 and 6.38.
Turning to `CNC(=O)Nc1ccc(-c2nc(N3CCOCC3)c3cnn(C4CCN(C(=O)OCC(C)(C)C)CC4)c3n2)cc1` [Compound 876, 2,2-dimethylpropyl 4-(6-{4-[(methylcarbamoyl)amino]phenyl}-4-morpholin-4-yl-1H-pyrazolo[3,4-d]pyrimidin-1-yl)piperidine-1-carboxylate], the negative logarithm of the IC50 (pIC50) is 7.06 in experiment [1]; 6.96 in experiment [2] (Homo sapiens, LNCaP, 72 h); 6.46 in experiment [3] (Homo sapiens, 72 h).
On to `CNC(=O)Nc1ccc(-c2nc(N3CCOCC3)c3cnn(C4CCOCC4)c3n2)cc1` [Compound 939, 1-methyl-3-{4-[4-morpholin-4-yl-1-(tetrahydro-2H-pyran-4-yl)-1H-pyrazolo[3,4-d]pyrimidin-6-yl]phenyl}urea], for which the pIC50 was 7.36 in experiment [1]; 6.85 in experiment [2] (Homo sapiens, LNCaP, 72 h); 6.30 in experiment [3] (Homo sapiens, 72 h).
Take `CNC(=O)Nc1ccc(-c2nc(N3CCOCC3)c3cnn(C4CCN(Cc5ccccc5O)CC4)c3n2)cc1` [Compound 644, 1-(4-{1-[1-(2-hydroxybenzyl)piperidin-4-yl]-4-morpholin-4-yl-1H-pyrazolo[3,4-d]pyrimidin-6-yl}phenyl)-3-methylurea]: the figures for the pIC50 in experiment [1], in experiment [2] and in experiment [3] were 7.44, 7.22 and 6.49, respectively.
For `O=C(Nc1ccc(-c2nc(N3CCOCC3)c3cnn(C4CCN(Cc5cccnc5)CC4)c3n2)cc1)Nc1ccccn1` [Compound 588, 1-(4-{4-morpholin-4-yl-1-[1-(pyridin-3-ylmethyl)piperidin-4-yl]-1H-pyrazolo[3,4-d]pyrimidin-6-yl}phenyl)-3-pyridin-2-ylurea], the pIC50 is 7.05 in experiment [1]; 6.48 in experiment [2] (Homo sapiens, LNCaP, 72 h); 5.74 in experiment [3] (Homo sapiens, 72 h).
Consider `OCCN1CCC(n2ncc3c(N4CCOCC4)nc(-c4ccc5[nH]ccc5c4)nc32)CC1` [Compound 496, 2-{4-[6-(1H-indol-5-yl)-4-morpholin-4-yl-1H-pyrazolo[3,4-d]pyrimidin-1-yl]piperidin-1-yl}ethanol], for which the pIC50 is 5.40 in experiment [1]; 5.74 in experiment [2] (Homo sapiens, LNCaP, 72 h); 5.52 in experiment [3] (Homo sapiens, 72 h).
In the same order, the values of `CNC(=O)Nc1ccc(-c2nc(N3CCOC(C)C3)c3cnn(C4CCN(C(=O)OC)CC4)c3n2)cc1` (stereo not drawn) [Compound 841, methyl 4-[6-{4-[(methylcarbamoyl)amino]phenyl}-4-(2-methylmorpholin-4-yl)-1H-pyrazolo[3,4-d]pyrimidin-1-yl]piperidine-1-carboxylate] are 6.57, 6.82 and 6.30.
In the case of `CNC(=O)Nc1ccc(-c2nc(N3CCOCC3)c3cnn(C4CCN(C(=O)c5cccnc5)CC4)c3n2)cn1` [Compound 725, 1-methyl-3-(5-{4-morpholin-4-yl-1-[1-(pyridin-3-ylcarbonyl)piperidin-4-yl]-1H-pyrazolo[3,4-d]pyrimidin-6-yl}pyridin-2-yl)urea], the pIC50 is 7.38 in experiment [1], 6.10 in experiment [2] and 5.94 in experiment [3].
On to `COC(=O)Nc1ccc(-c2nc(N3CCOCC3)c3cnn(C4CCN(Cc5ccccc5Cl)CC4)c3n2)cc1` [Compound 455, methyl (4-{1-[1-(2-chlorobenzyl)piperidin-4-yl]-4-morpholin-4-yl-1H-pyrazolo[3,4-d]pyrimidin-6-yl}phenyl)carbamate], for which the pIC50 in experiment [1] is 6.10; in experiment [2] (Homo sapiens, LNCaP, 72 h) it was 5.60; in experiment [3] (Homo sapiens, 72 h), 5.28.
Take `COC(=O)N1CCC(n2ncc3c(N4CCOCC4)nc(-c4ccc(NC(=O)OCCF)cc4)nc32)CC1` [Compound 865, methyl 4-[6-(4-{[(2-fluoroethoxy)carbonyl]amino}phenyl)-4-morpholin-4-yl-1H-pyrazolo[3,4-d]pyrimidin-1-yl]piperidine-1-carboxylate]: the pIC50 in experiment [1] was 5.53; in experiment [2] (Homo sapiens, LNCaP, 72 h), 6.17; in experiment [3] (Homo sapiens, 72 h) it was 5.39.
`CNC(=O)Nc1ccc(-c2nc(N3CCOCC3)c3cnn(C4CCN(C(=O)c5cccnc5C)CC4)c3n2)cc1` [Compound 573, 1-methyl-3-[4-(1-{1-[(2-methylpyridin-3-yl)carbonyl]piperidin-4-yl}-4-morpholin-4-yl-1H-pyrazolo[3,4-d]pyrimidin-6-yl)phenyl]urea]: the pIC50 in experiment [1] is 6.67; in experiment [2] (Homo sapiens, LNCaP, 72 h), 6.60; in experiment [3] (Homo sapiens, 72 h), 6.05.
Consider `COC(=O)Nc1ccc(-c2nc(N3CCOCC3)c3cnn(C4CCNCC4)c3n2)cc1` [Compound 459, methyl [4-(4-morpholin-4-yl-1-piperidin-4-yl-1H-pyrazolo[3,4-d]pyrimidin-6-yl)phenyl]carbamate], for which the pIC50 in experiment [1] is 5.97; in experiment [2] (Homo sapiens, LNCaP, 72 h), 5.77; in experiment [3] (Homo sapiens, 72 h), 5.52.
`CNCCNC(=O)Nc1ccc(-c2nc(N3CCOCC3)c3cnn(C4CCN(C(=O)c5ccccc5)CC4)c3n2)cc1` [Example 386, 1-{4-[1-(1-benzoylpiperidin-4-yl)-4-morpholin-4-yl-1H-pyrazolo[3,4-d]pyrimidin-6-yl]phenyl}-3-[2-(methylamino)ethyl]urea]: the pIC50 in experiment [1] is 7.32; in experiment [2] (Homo sapiens, LNCaP, 72 h), 5.92; in experiment [3] (Homo sapiens, 72 h), 5.85.
In the case of `CNC(=O)Nc1ccc(-c2nc(N3CCOCC3)c3cnn(C4CCN(Cc5cccc(O)c5)CC4)c3n2)cc1` [Example 397, 1-(4-{1-[1-(3-hydroxybenzyl)piperidin-4-yl]-4-morpholin-4-yl-1H-pyrazolo[3,4-d]pyrimidin-6-yl}phenyl)-3-methylurea], the pIC50 in experiment [1] was 7.55; in experiment [2] (Homo sapiens, LNCaP, 72 h), 6.85; in experiment [3] (Homo sapiens, 72 h) it was 6.40.
As for `COC(=O)N1CCC(n2ncc3c(N4CCOCC4)nc(-c4ccc5[nH]ccc5c4)nc32)CC1` [Compound 494, methyl 4-[6-(1H-indol-5-yl)-4-morpholin-4-yl-1H-pyrazolo[3,4-d]pyrimidin-1-yl]piperidine-1-carboxylate], the pIC50 in experiment [1] was 5.48; in experiment [2] (Homo sapiens, LNCaP, 72 h), 6.12; in experiment [3] (Homo sapiens, 72 h), 5.69.
In the case of `CNC(=O)Nc1ccc(-c2nc(N3CCOCC3)c3cnn(C4CCN(Cc5ccccc5O)CC4)c3n2)cc1` [Example 399, 1-(4-{1-[1-(2-hydroxybenzyl)piperidin-4-yl]-4-morpholin-4-yl-1H-pyrazolo[3,4-d]pyrimidin-6-yl}phenyl)-3-methylurea], the negative-log IC50 (pIC50) was 7.43 in experiment [1]; 7.22 in experiment [2] (Homo sapiens, LNCaP, 72 h); 6.52 in experiment [3] (Homo sapiens, 72 h).
For `Oc1cccc(-c2nc(N3CCOCC3)c3cnn(C4CCN(Cc5ccc(Cl)cc5)CC4)c3n2)c1` [Compound 19], the negative logarithm of the IC50 (pIC50) in experiment [1] is 7.96; in experiment [2] (Homo sapiens, LNCaP, 72 h) it was 6.35; in experiment [3] (Homo sapiens, 72 h), 5.77.
In the same order, the values of `Oc1cccc(-c2nc(N3CCOCC3)c3cn[nH]c3n2)c1` [Example 204, 3-(4-morpholin-4-yl-1H-pyrazolo[3,4-d]pyrimidin-6-yl)phenol] are 7.59, 5.60 and 5.10.
Taken in the same sequence, the figures for `COC(=O)N1CCC(n2ncc3c(N4CCOC(C)C4)nc(-c4ccc(NC(=O)NCCF)cc4)nc32)CC1` (stereo not drawn) [Compound 844, methyl 4-[6-(4-{[(2-fluoroethyl)carbamoyl]amino}phenyl)-4-(2-methylmorpholin-4-yl)-1H-pyrazolo[3,4-d]pyrimidin-1-yl]piperidine-1-carboxylate] were 6.05, 7.23 and 6.15.
As for “1-(4-{1-[1-(methoxymethyl)piperidin-4-yl]-4-morpholin-4-yl-1H-pyrazolo[3,4-d]pyrimidin-6-yl}phenyl)-3-methylurea [Compound 796]”, the pIC50 in experiment [1] was 5.81; in experiment [2], 4.66; in experiment [3] it was 4.52.
As for `CNC(=O)Nc1ccc(-c2nc(N3CCOCC3)c3cnn(C4CCN(C(=O)c5ccccc5)CC4)c3n2)cc1` [Compound 580, 1-{4-[1-(1-benzoylpiperidin-4-yl)-4-morpholin-4-yl-1H-pyrazolo[3,4-d]pyrimidin-6-yl]phenyl}-3-methylurea], the pIC50 in experiment [1] was 7.20; in experiment [2] (Homo sapiens, LNCaP, 72 h), over 7.57; in experiment [3] (Homo sapiens, 72 h), 7.57.
In the case of `CNC(=O)Nc1ccc(-c2nc(N3CCOCC3)c3cnn(C4CCN(C(=O)OCCBr)CC4)c3n2)cc1` [Compound 804, 2-bromoethyl 4-(6-{4-[(methylcarbamoyl)amino]phenyl}-4-morpholin-4-yl-1H-pyrazolo[3,4-d]pyrimidin-1-yl)piperidine-1-carboxylate], the pIC50 in experiment [1] was 6.85; in experiment [2] (Homo sapiens, LNCaP, 72 h), 6.15; in experiment [3] (Homo sapiens, 72 h) it was 6.10.
